Consider two compounds from paper PMC3781062 (PLoS ONE, 2013).

One data set concerns human liver microsomes. Briefly: 8-MOP metabolism (substrate depletion) in human liver microsomes. Particulars: α-naphthoflavone 5 µM. It counts as in vitro ADME. (In general: Liver microsomes are a subcellular fraction often used to study metabolism.)
For a further data set, the target named is T1, CYP1A1 (Homo sapiens, UniProt P04798).
T1 sequence (P04798 1-512): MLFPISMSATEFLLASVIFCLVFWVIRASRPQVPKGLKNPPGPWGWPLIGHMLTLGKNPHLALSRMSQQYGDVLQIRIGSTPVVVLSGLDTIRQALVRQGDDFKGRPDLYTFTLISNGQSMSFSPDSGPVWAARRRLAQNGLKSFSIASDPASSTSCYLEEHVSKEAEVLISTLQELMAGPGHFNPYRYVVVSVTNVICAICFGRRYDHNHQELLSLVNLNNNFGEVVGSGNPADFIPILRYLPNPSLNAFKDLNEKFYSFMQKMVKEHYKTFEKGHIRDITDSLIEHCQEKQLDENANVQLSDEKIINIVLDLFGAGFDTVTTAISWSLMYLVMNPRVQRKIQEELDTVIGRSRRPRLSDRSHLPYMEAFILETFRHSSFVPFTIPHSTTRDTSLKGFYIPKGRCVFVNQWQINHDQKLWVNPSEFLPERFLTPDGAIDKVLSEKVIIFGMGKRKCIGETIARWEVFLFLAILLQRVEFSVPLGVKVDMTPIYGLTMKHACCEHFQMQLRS
Particulars: α-naphthoflavone 5 µM; recombinant CYP1A1.

For data set [1], the system named is CYP1B1. Particulars: α-naphthoflavone 5 µM; recombinant CYP1B1.
Procedure: (§5) After 3 min 37°C pre-incubation, reactions were initiated by 40 µl 5 mM NADPH containing 30 mM glutathione (GSH) in 50 mM PB (pH 7.4). Reactions were incubated for 10 min in a shaking water bath at 37°C, terminated by the addition of 100 µl ice-cold methanol containing 3% perchloric acid, and placed on ice for 10 min. Zero-time controls were terminated before the addition of P450 membranes; no-NADPH control reactions were initiated with 20 µl 50 mM PB (pH 7.4) containing 30 mM GSH. Samples were vortexed for 1 min, centrifuged at 12 000 rpm for 5 min, supernatants collected and analysed by HPLC analysis [28].
Data set [2] has as its target T2, CYP1B1 (Homo sapiens, UniProt Q16678, L432V).
T2 construct: made in house; host or cells: E. coli JM109
T2 sequence (Q16678 1-543 L432V): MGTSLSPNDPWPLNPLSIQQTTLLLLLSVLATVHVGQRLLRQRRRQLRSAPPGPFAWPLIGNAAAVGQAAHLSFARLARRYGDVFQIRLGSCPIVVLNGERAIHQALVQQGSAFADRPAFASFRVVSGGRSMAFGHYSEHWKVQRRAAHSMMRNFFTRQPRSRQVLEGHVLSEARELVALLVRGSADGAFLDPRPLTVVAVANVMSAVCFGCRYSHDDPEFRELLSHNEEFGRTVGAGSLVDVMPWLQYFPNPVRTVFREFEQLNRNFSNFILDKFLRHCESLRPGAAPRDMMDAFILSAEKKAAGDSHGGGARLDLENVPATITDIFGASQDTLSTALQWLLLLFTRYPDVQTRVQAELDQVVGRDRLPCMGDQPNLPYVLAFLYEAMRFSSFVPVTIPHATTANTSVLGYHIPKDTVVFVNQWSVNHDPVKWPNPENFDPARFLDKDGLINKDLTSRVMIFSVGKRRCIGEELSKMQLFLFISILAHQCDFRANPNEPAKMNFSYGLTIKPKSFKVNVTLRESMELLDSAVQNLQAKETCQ
Briefly: Inhibition of CYP1B1-dependent EROD activity, E. coli membranes co-expressing CYP1B1 and CPR. Type of data set: biochemical. The protocol: (§1) EROD activity was determined as previously described, but modified in 96-well plate format with quadruplicate replicates, using a Fluoroskan fluorescence reader (Labsystems, Cambridge, UK). […] Calibration curves were constructed with authentic resorufin standards and linear regression analysis used to calculate the amount of resorufin formed in each test sample. Enzyme kinetics for CYP1B1-catalysed EROD activity were determined at substrate concentrations from 0.002 to 2 µM. Apparent Km and Vmax values were estimated by non-linear regression analysis (GraFit software program, UK) of the substrate concentration [S]-enzyme activity [V], fitting data to a Michaelis-Menten model.

A further data set deals with CYP1B1*1 (Homo sapiens, UniProt Q16678). Briefly: Inhibition of EROD activity of CYP1B1 allelic variant co-expressed with CPR. It counts as biochemical. Particulars: IC50 against CYP1B1-dependent EROD activity, mean ± SD of triplicate determinations. How it is done: (§2) Construction of CYP1B1 and CPR expression plasmids has been described previously. The CYP1B1 alleles CYP1B1*1, CYP1B1*3 and CYP1B1*4 were co-expressed with CPR in E. coli JM109 cells and membranes prepared as described previously. P450 content was determined spectrophotometrically, and CPR activity estimated by cytochrome c reduction. […] Solubilised protein lysates or human liver microsomes were separated by SDS-PAGE, transferred onto Hybond-ECL nitrocellulose membranes (Amersham, UK) and probed with CYP1B1 (BD Gentest, Woburn, MA) and CPR antibodies, as previously described.
as §1

The target of another data set is CYP1B1*3 (Homo sapiens, UniProt Q16678, form not given). The description is as above. Type of data set: biochemical. As to conditions: probe 7-ethoxyresorufin (EROD). How it is done: as §2, §1
The next data set has as its target T3, CYP1B1*4 (Homo sapiens, UniProt Q16678, L432V/N453S).
T3 construct: made in house; host or cells: E. coli JM109
T3 sequence (Q16678 1-543 L432V/N453S): T2 sequence (Q16678 1-543 L432V) with N453S
Described as above. Type of data set: biochemical. As to conditions: mean ± SD of triplicate determinations, read-out: IC50 against CYP1B1-dependent EROD activity (converted). How it is done: as §2, §1

For another data set, the system named is CHO cells. Briefly: PUVA cytotoxicity, neutral red uptake assay. How it is done: (§3) CHO cell lines stably over-expressing CYP1B1 and CPR were generated as previously described. CHO cells were maintained at 37°C/5% CO2 in Dulbecco’s Modified Eagle’s medium (DMEM) supplemented with 10% fetal bovine serum (FBS), 100 U/ml penicillin, 100 µg/ml streptomycin, 1 U/ml each of hypoxanthine and thymine (Invitrogen, Paisley-UK). Similar culture conditions, with the addition of G-418 (400 µg/ml), were used for CHO cells stably expressing CPR (CHO-CPR). CHO cells stably co-expressing CYP1B1 and CPR (CHO-1B1/CPR) were maintained at 37°C/5% CO2, but in hypoxanthine and thymine-free DMEM supplemented with 10% dialysed FBS and the appropriate selection (0.3 µM MTX and 400 µg/ml G-418). HaCaT keratinocytes were grown to 80% confluence in DMEM supplemented with 10% fetal bovine serum (FBS), 100 U/ml penicillin, 100 µg/ml streptomycin and 2 mM glutamine. Cells were harvested and microsomes prepared as described previously. HaCaT cell microsomes and microsomes from human skin biopsies obtained from peri-lesional skin from psoriasis patients, [13] were used to investigate functional CYP1B1 expression using EROD assays.
(§4) To investigate CHO cell sensitivity to UVA and PUVA, actively dividing cells (10000 cells/well) were seeded in 96-well plates (Iwaki, Japan) in quadruplicates in 200 µl culture medium and allowed to grow for 18–20 h. Cells were irradiated at room temperature with a UVA source (2×6 ft Cosmolux 15500/100 W, 1.7 mW/cm^2 (320–400 nm; λmax = 365 nm), Germany) through a 4 mm thick window glass filter at multiple UVA doses (0, 1.5, 4.0 and 7.5 J/cm^2), monitoring irradiance with a Waldmann UV meter equipped with UVA detector. Control samples were kept in the dark under the same conditions. […] Control samples were pre-incubated with solvent and kept in the dark under the same conditions. After each treatment, fresh culture medium was added and cells returned to an incubator at 37°C/5%CO2 for 24 h. Cell viability was assessed using neutral red uptake assays; quadruplicate replicates of each treatment were performed, and each experiment repeated twice. PUVA cytotoxicity data was assessed by non-linear regression analysis for dose-response curves (IC50) fitting (GraFit software program, UK) and unpaired Student’s t-test (Statview 4.1 software).

The subject of another data set is CHO-CPR cells. Briefly: PUVA cytotoxicity, neutral red uptake assay. The protocol:
as §3, §4

Positions count from the first letter of the chain named. Where “and” joins values, the source holds several entries; their conditions need not be identical. Equal entries are not always repeated.

Procedure for CYP1A1: as §5
Procedure for human liver microsomes: as §5

On to `O=c1cc(-c2ccccc2)oc2c1ccc1ccccc12` [α-naphthoflavone], for which the “8-MOP metabolism in presence of inhibitor” value in the data set with human liver microsomes is 59 % of control levels; on CYP1A1, 53 % of control levels; in the data set with CYP1B1 [1], 62 % of control levels.
Take `COc1c2occc2cc2ccc(=O)oc12` [8-MOP, 8-methoxypsoralen]: the IC50 (in general, the concentration needed to halve the response being measured) on CYP1B1 [2] (7-ethoxyresorufin at Km concentration, estimated) is 2 ± 0.1 µM; against CYP1B1*1 it was 1.71 µM and 1.7 µM; at CYP1B1*4 it was 0.601 µM and 0.6 µM; with CHO cells (Cricetulus griseus, CHO, light or radiation study, read-out: IC50 for 8-MOP in the presence of UVA), 0.461 µg/mL and 2.13 µM; with CHO-CPR cells (Cricetulus griseus, light or radiation study, read-out: IC50 for 8-MOP in the presence of UVA) it was 0.54 µg/mL and 2.5 µM. In addition, the “Mode of inhibition of CYP1B1” value on CYP1B1 [2] (Lineweaver-Burk plots, six 8-MOP and four 7-ethoxyresorufin concentrations) is “mixed inhibition”. On CYP1B1 [2] (n = 3), affinity was put at a Ki of 3.58 ± 1 µM. Also, the IC50 at 3 min against CYP1B1*3 was 0.326 µg/mL and 1.5 µM. Also, the “Cytotoxicity of 8-MOP alone (no UVA)” value is on record as “no significant cytotoxicity” in the data set on CHO cells (CHO cells, 8-MOP 0–5 µM, dark) and “not cytotoxic” in the data set with CHO-CPR cells (CHO-CPR cells, 8-MOP alone).
